ChEMBL document CHEMBL3792320, “Synthesis, biological evaluation and molecular docking studies of 2-amino-3,4,5-trimethoxyaroylindole derivatives as novel anticancer agents” (2016)
Activity calls are given as the source filed them. The rule behind the calls is not given here.

Legend:
Format in all cases: functional
[1] = system: MCF7; assay: Cytotoxicity against human MCF7 cells assessed as reduction in cell growth after 48 hrs by SRB assay
[2] = system: HT-29; assay: Cytotoxicity against human HT-29 cells assessed as reduction in cell growth after 48 hrs by SRB assay
[3] = system: MCF7; assay: Cytotoxicity against human MCF7 cells assessed as reduction in cell viability after 72 hrs by MTS assay; settings: MCF7, 72 h

SMILES | GI50 ([1]; MCF7, 48 h) [nM] | GI50 ([2]; HT-29, 48 h) [nM] | GI50 [1] | GI50 [2] | GI50 [3] [nM]
COc1cc(C(=O)c2c[nH]c3cccc(OC)c23)c(N)c(OC)c1OC | > 100000 | > 100000 | – | – | –
COc1ccc2[nH]cc(Cc3cc(OC)c(OC)c(OC)c3N)c2c1 | 32800 | > 100000 | – | – | –
COc1ccc(/C=C\c2cc(OC)c(OC)c(OC)c2)cc1O [COMBRETASTATIN A4] | 25 | 260 | – | – | –
COc1cc(C(=O)c2c[nH]c3c(OC)cccc23)c(N)c(OC)c1OC | 9960 | 48600 | – | – | –
COc1cc(Cc2c[nH]c3ccc(Br)cc23)c(N)c(OC)c1OC | – | – | inactive | inactive | –
COc1cc(C(=O)c2c[nH]c3ccc(Cl)cc23)c(N)c(OC)c1OC | 321 | 4850 | – | – | –
COc1cc2[nH]cc(C(=O)c3cc(OC)c(OC)c(OC)c3N)c2cc1OC | 38400 | 24400 | – | – | –
CCOC(=O)c1[nH]c2ccc(OC)cc2c1C(=O)c1cc(OC)c(OC)c(OC)c1N | 540 | 5150 | – | – | –
COc1ccc2c(Cc3cc(OC)c(OC)c(OC)c3N)c[nH]c2c1 | 1830 | 74800 | – | – | –
COC(=O)c1[nH]c2ccccc2c1C(=O)c1cc(OC)c(OC)c(OC)c1N | 193 | 2380 | – | – | –
COC(=O)c1[nH]c2ccc(Cl)cc2c1C(=O)c1cc(OC)c(OC)c(OC)c1N | 171 | 2140 | – | – | –
CCOC(=O)c1[nH]c2ccc(Br)cc2c1C(=O)c1cc(OC)c(OC)c(OC)c1N | 425 | 5380 | – | – | –
CCOC(=O)c1[nH]c2ccccc2c1C(=O)c1cc(OC)c(OC)c(OC)c1N | 480 | 5630 | – | – | –
COc1cc(C(=O)c2c[nH]c3cc(F)ccc23)c(N)c(OC)c1OC | 42800 | 64200 | – | – | –
COc1cc(C(=O)c2c[nH]c3ccc(Br)cc23)c(N)c(OC)c1OC | 360 | 3830 | – | – | –
COc1cc(Cc2c[nH]c3ccccc23)c(N)c(OC)c1OC | 45000 | > 100000 | – | – | –
COc1cc(Cc2c[nH]c3c(OC)cccc23)c(N)c(OC)c1OC | – | – | inactive | inactive | –
COc1cc(Cc2c[nH]c3cc(F)ccc23)c(N)c(OC)c1OC | – | – | inactive | inactive | –
COc1cc(Cc2c[nH]c3ccc(C)cc23)c(N)c(OC)c1OC | – | – | inactive | inactive | –
COc1ccc2c(C(=O)c3cc(OC)c(OC)c(OC)c3)c[nH]c2c1 | – | – | – | – | 7
CCOC(=O)c1[nH]c2ccc(Cl)cc2c1C(=O)c1cc(OC)c(OC)c(OC)c1N | 590 | 6840 | – | – | –
COc1cc(Cc2c[nH]c3cccc(OC)c23)c(N)c(OC)c1OC | – | – | inactive | inactive | –
COc1cc2[nH]cc(Cc3cc(OC)c(OC)c(OC)c3N)c2cc1OC | – | – | inactive | inactive | –
COc1cc(Cc2c[nH]c3ccc(Cl)cc23)c(N)c(OC)c1OC | – | – | inactive | inactive | –
COc1cc(C(=O)c2c[nH]c3ccc(C)cc23)c(N)c(OC)c1OC | 12400 | > 100000 | – | – | –
COC(=O)c1[nH]c2ccc(OC)cc2c1C(=O)c1cc(OC)c(OC)c(OC)c1N | 102 | 1240 | – | – | –
COC(=O)c1[nH]c2ccc(Br)cc2c1C(=O)c1cc(OC)c(OC)c(OC)c1N | 124 | 1940 | – | – | –
COc1ccc2[nH]cc(C(=O)c3cc(OC)c(OC)c(OC)c3N)c2c1 | 528 | 950 | – | – | –
COc1cc(C(=O)c2c[nH]c3ccccc23)c(N)c(OC)c1OC | 900 | 9800 | – | – | –
COc1ccc2c(C(=O)c3cc(OC)c(OC)c(OC)c3N)c[nH]c2c1 | 13 | 143 | – | – | –
